Assay results: US20250366467A1, “METHODS FOR FLUID RESUSCITATION OF AN ORGAN DONOR” (VIRGINIA COMMONWEALTH UNIVERSITY, priority 2022, published 2025)

System: brain dead adult beagle dogs
Settings: dog, in vivo
Experimental: Care and Use Committee. Adult beagle dogs (8-10 kg) of either sex (n=11) were initially anesthetized with propofol (10 mg/kg, intravenous or IV). After intubation, anesthesia was maintained with isoflurane at 1-2% on mechanical ventilation with FiO2 at 30%, ventilation rate of 12, which was adjusted as necessary to achieve a PaCO2 goal of 38-42 mmHg. A circulating water-warming pad was used to maintain normothermia throughout the experiment. The femoral artery was cannulated for arterial blood sampling and for measurement of arterial blood pressure and heart rate. The external jugular vein was also accessed and cannulated for administration of fluids and necessary medications.
Explosive brain death was induced in anesthetized adult Beagle dogs by inflating a balloon catheter (16 Fr. Foley) that was placed under the skull from a trephination burr hole. The balloon was inflated from 0-8 ml volume over about 5 minutes. which ultimately causes the brain stem to herniate through the foramen at the base of the skull. This causes rapid brain death that is characterized by the occurrence of a Cushing reflex, a negative apnea reflex, and fixed and dilated pupils. This methodology has previously been described by Mangino, et al.
The animals were assigned to either the control group (n=5) or the PEG-20k group (n=6) within the first hour. Both groups were treated in a standard fashion. […]

Q: For polyethylene glycol-20k [PEG-20k], which Hb level trend is on record?
A: Its Hb level trend is “trended lower”.
